Measurements: patent US20130253022A1 (FOX CHASE CHEMICAL DIVERSITY CENTER, INC., priority 2010, published 2013)

How the values were obtained:
[1] = tested on: MES-induced seizure spread; assay: Maximal electroshock seizure (MES) test, rat; type: in vivo, rats; conditions: po
Protocol: Seizure-related assays, Maximal electroshock test: The most definitive assay for anti-seizure activity is the maximal electroshock (MES) test (Swinyard, E. A. Laboratory evaluation of antiepileptic drugs: review of laboratory methods, Epilepsia, 1969, 10, 107-119). […] With both rodent assays, the duration of action is of high importance as well as the potency of the response.
Methods to measure anticonvulsant activity: All tests were conducted by the Anticonvulsant Screening Program (ASP) of the National Institute of Neurological Disease and Stroke at the National Institutes of Health.
The Maximal Electroshock Seizure (MES) or Maximal Seizure Pattern Test: The MES is a model for generalized tonic-clonic seizures (Putnam and Merritt. Experimental determination of the anticonvulsant properties of some phenyl derivatives. Science 1937, 85, 113-118). It is highly reproducible with consistent endpoints. The behavioral and electrographic seizures generated in this model are consistent with the human disorder. This model identifies those compounds which prevent seizure spread.
In the MES test, an electrical stimulus of 0.2 s in duration (50 mA in mice and 150 mA in rat at 60 Hz) is delivered via corneal electrodes primed with an electrolyte solution containing an anesthetic agent. Mice are tested at 30 minutes and 4 hours following doses of 30, 100 and 300 mg/kg of test compound. Test compounds are administered intraperitoneally to the mice. Rats are tested at time intervals between 0.25 and 4 hours following a standard oral dose of 30 mg/kg. Abolition of the hindlimb tonic extensor component indicates the test compound's ability to inhibit MES-induced seizure spread.

6-Hz psychomotor seizure = assay: 6 Hz psychomotor seizure test, mouse; type: in vivo, mice; conditions: ip
Protocol: Methods to measure anticonvulsant activity: All tests were conducted by the Anticonvulsant Screening Program (ASP) of the National Institute of Neurological Disease and Stroke at the National Institutes of Health. The 6 Hz Seizure Test: Compounds were further tested in the 6-Hz psychomotor seizure model. (Barton et al. Pharmacological characterization of the 6 Hz psychomotor seizure model of partial epilepsy. Epilepsy Res. 2001, 47, 217-227). This model is used to detect […] that may be useful for the treatment of therapy-resistant partial seizures. For this test, an alternative electrical stimulation paradigm is used with a low frequency (6 Hz), long duration (3 seconds) corneal stimulation. The seizure evoked by this low frequency stimulation is characterized by immobility, forelimb clonus, Straub tail and facial automatisms. Mice are tested from 15 min to 4 hours following an intraperitoneal dose of 100 mg/kg. Abolition of the clonic seizures indicates the ability of a compound to prevent partial or psychomotor seizures.

Hippocampal Cultures = assay: Neuroprotection from hydrogen peroxide (oxidative stress), CFDA assay; type: cell-based; conditions: Rattus norvegicus; 10 μM hydrogen peroxide, hippocampal cultures, 4 hour test period; read-out: NP from Hydrogen Peroxide CFDA EC50
Description: Cell cultures: All compounds are screened with dissociated hippocampal cultures derived from embryonic day 18 rats as the primary test system. With this preparation, primary neurons are used to test for toxicity as well as neuroprotection in a highly relevant experimental system to epilepsy. In brief, hippocampal tissue are obtained commercially through Brain Bits (Springfield, Ill.) and cultures prepared as previously described by Brewer (Brewer, G. J. Serum-free B27/neurobasal medium supports differentiated growth of neurons from the striatum, substantia nigra, septum, cerebral cortex, cerebellum and dentate gyms, J. Neurosci. Res. 1995, 42, 674-683). The hippocampal neurons are platted at low density (10,000 cell/well) in a 96-well format and maintained in serum-free medium consisting of Neurobasal Medium supplemented with B27 and GlutaMAX (Gibco). Pre-coated poly-L-lysine coated plates are used because of the preferential adherence and survival of hippocampal neurons on this matrix support.
Potent neuroprotection is the distinguishing characteristic that separates this program's anticonvulsants from all other commercial drugs for epilepsy. The experimental details and the rationale for the implemented assays are essential in differentiating these compounds from that of others. The central objective of all neuroprotective assays was their relevancy to excitotoxicity and oxidative stress related to epilepsy. Both the amount of glutamate and hydrogen peroxide used in the assays, as well as the time of treatment and duration of the experiment, were designed to be relevant to epilepsy. Further, all time parameters employed in these studies were empirically determined to be within the limits of reversible toxic events, yet using amounts of glutamate and hydrogen peroxide that were relevant to the disease. In regard to glutamate toxicity, a critical feature was the duration of treatment of the hippocampal neurons. The rational for using a short 5 min treatment with glutamate was based on the observation of Randall and Thayer (Randall, R. D.; Thayer, S. A. Glutamate-induced calcium transient triggers calcium overload and neurotoxicity in rat hippocampal neurons, J. Neurosci. 1992, 12, 1882-1895). […] The rationale is that this intense burst of glutamate and resulting calcium overload is relevant to seizures and therefore was important data to capture in the screening assay. The amount of glutamate (30 μM) employed in our screening was based on the basal levels of glutamate observed in microdialysis measurements of hippocampus from epileptogenic patients (Cavus et al. Decreased hippocampal volume on MRI is associated with increased extracellular glutamate in epilepsy patients, Epilepsia, 2008, 49, 1358-1366). In regard to hydrogen peroxide, the amount employed (10 μM) was detected in the hippocampus of rats after kainate-induced status epilepticus (Jarrett et. al., Mitochondrial DNA damage and impaired base excision repair during epileptogenesis, Neurobiol. Dis. 2008, 30, 130-138). To produce neural damage and death with these amounts of glutamate and hydrogen peroxide, the cultures were changed to a medium with significant depletion of antioxidant components in the defined medium supplement B-27 just prior to treatment with the compounds. This was performed to obtain a significant and reproducible toxic signal in the hippocampal neurons and because loss of antioxidant control may be a component of epileptogenesis (Waldbaum and Patel, Mitochondria, oxidative stress and temporal lobe epilepsy, Epilepsy Res. 2010 88, 23-45; Wu et al., Mitochondrial DNA mutation-elicited oxidative stress, oxidative damage, and altered gene expression in cultured cells of patients with MERRF syndrome, Mol. Neurobiol. 2010, 41, 256-266). Neuroprotection studies with hydrogen peroxide were conducted with cultures that were between day 12 and day 18. Studies of neuroprotection glutamate were conducted between day 19 and day 22. […]

EC50 (Hippocampal Cultures) | Structure (SMILES) | ED50 [1] | ED50 (6-Hz psychomotor seizure)
1 nM | NS(=O)(=O)NCC(F)(F)c1ccccc1F [Example 1, 2,2-Difluoro-2-(2-fluorophenyl)-ethyl-1-sulfamide] | 30 mg/kg | 18 mg/kg
0.1 nM | NS(=O)(=O)NCC(F)(F)c1ccccc1Cl [Example 2, 2,2-Difluoro-2-(2-chlorophenyl)-ethyl-1-sulfamide] | 30 mg/kg | 28 mg/kg
